Like-named read-outs stand apart in the source and are kept apart here.
Assays:
Assay type in all cases: cell-based
[1] = MTT cell viability in parallel with the U1 assay; conditions: human, U1 cells, read-out: U1 TC50
Experimental: (§1) U1 activation assay. U1 cells obtained from the AIDS Research and Reference Reagent Program were maintained under standard culture conditions in RPMI 1640 supplemented with 10% fetal bovine serum (heat inactivated), 2 mM L-glutamine, 100U/mL penicillin and 100 μg/mL streptomycin. U1 cells contain an integrated copy of a phorbol ester inducible HIV-1 provirus and addition of phytohemagglutinin (PHA) to the cell culture was used to induce virus production. On the day of the assay, the U1 cells were activated with PHA and 250,000 cells were plated in 96-well plates. Test compounds were diluted in media and applied to the cells at final concentrations from 1 to 10,000 nM. Cultures were incubated for 3 days and supernatants harvested. Cell-free virus production was measured by p24 ELISA on culture supernatant. Compound toxicity was determined by MTT cell-viability assay in parallel assays.

[2] = MTT cell viability run in parallel with the Tat-hybrid assay; conditions: human, Tat-hybrid reporter cell lines (HeLa); for CC50 at 48 h: Table 5, read-out: Tat hybrid TC50; for EC50 at 48 h: Table 6, second 'EC50' entry of the cell, values D/E
Experimental: (§2) Cells were counted and plated into white 384-well or 96-well cell-culture treated assay plates and compounds were added. After 48 hours, the cells were prepared for luminescence assays that were performed on a plate reader (Tecan Evolution or MD Analyst). The cytotoxicity of each compound was determined in parallel via MTT-based cell viability assays.
as §2, with “Tat hybrid reporter assay. […] Previously characterized thienopyridines and diaminoacridine were used as controls. Cells” for “Cells”, “384-well” for “384-well or 96-well”, “lumincescence” for “luminescence”, “assays. […]” for “assays.”

[3] = tested on: HIV-1 provirus in U1 cells; assay: U1 activation (latency) assay, p24 ELISA
Experimental: as §1

[4] = tested on: Tat-hybrid reporter cell lines (HeLa); assay: MTT cell viability run in parallel with the Tat-hybrid assay; conditions: Table 6; at 50,000 nM
Experimental: as §2
as §2, with “Tat hybrid reporter assay. […] Previously characterized thienopyridines and diaminoacridine were used as controls. Cells” for “Cells”, “384-well” for “384-well or 96-well”, “lumincescence” for “luminescence”, “assays. […]” for “assays.”

[5] = Human immunodeficiency virus 1, Table 5, read-out: U1 IC50
[6] = Human immunodeficiency virus 1, Table 2, read-out: U1 cell IC50
[7] = Human immunodeficiency virus 1, read-out: U1 cell IC50 (nM)

SMILES | CC50 at 3 days ([1]; Table 5) [µM] | CC50 at 48 h [2] [µM] | IC50 [3, 5] [nM] | further results
NC(=O)c1sc2cncc(N3CCc4sccc4C3)c2c1N | < 40 | > 40 | < 100 | –
Cc1noc(C2CCCN(c3cncc4sc(C(N)=O)c(N)c34)C2)n1 (stereo not drawn) [drawing 169] | > 40 | < 40 | > 500 | –
COc1ccccc1-c1cncc2sc(C(N)=O)c(N)c12 | > 40 | > 40 | 100 to 500 | –
Cc1ccc(-c2c3c(nc4sc(C(N)=O)c(N)c24)CCC3)cc1 | – | – | – | CC50 at 3 days ([1]; Table 6): < 40 µM; Tat hybrid cell viability at 50,000 nM [4]: X (X = >60%); IC50 ([3]; Human immunodeficiency virus 1, Table 6, read-out: U1 IC50): > 500 nM
NC(=O)c1cc2c(N3CCOCC3)cncc2s1 | < 40 | > 40 | 100 to 500 | –
N#Cc1ccc(-c2cncc3sc(C(N)=O)cc23)cc1F [drawing 143] | – | > 40 | 100 to 500 | –
CN(C)c1ccnc2sc(C(N)=O)c(N)c12 [drawing 152] | > 40 | > 40 | > 500 | –
NC(=O)c1sc2cncc(N3CCC4(CC3)OCCO4)c2c1N [drawing 161] | > 40 | < 40 | 100 to 500 | –
CN(C)c1ccc(-c2cncc3sc(C(N)=O)c(N)c23)cc1 | > 40 | < 40 | < 100 | –
NC(=O)c1sc2cncc(-c3ccc4c(c3)OCO4)c2c1N [Compound 3f, 3-amino-4-(2H-1,3-benzodioxol-5-yl)thieno[2,3-c]pyridine-2-carboxamide] | – | – | – | IC50 [3, 6]: 100 to 500 nM
NC(=O)c1sc2cncc(-c3ccccc3)c2c1N | > 40 | – | 100 to 500 | –
NC(=O)c1sc2cncc(-c3cccc4ccccc34)c2c1N | < 40 | > 40 | < 100 | –
CN(C)c1cccc(-c2cncc3sc(C(N)=O)c(N)c23)c1 | > 40 | < 40 | 100 to 500 | –
NC(=O)c1sc2cncc(N3CCC(F)(F)CC3)c2c1N [Compound 2h, 3-amino-4-(4,4-difluoropiperidin-1-yl)thieno[2,3-c]pyridine-2-carboxamide] | – | – | – | IC50 [3, 7]: 100 to 500 nM
COc1cc2c(cc1OC)CN(c1cncc3sc(C(N)=O)c(N)c13)CC2 | < 40 | < 40 | < 100 | –
NC(=O)c1sc2cncc(-c3ccc4c(c3)CCO4)c2c1N [drawing 151] | > 40 | < 40 | < 100 | –
NC(=O)c1sc2cncc(N3CCC(Oc4ccccc4)CC3)c2c1N [drawing 139] | < 40 | > 40 | < 100 | –
N#Cc1ccc(-c2cncc3sc(C(N)=O)cc23)cc1F [Compound 4c, 4-(4-cyano-3-fluorophenyl)thieno[2,3-c]pyridine-2-carboxamide] | – | – | – | IC50 [3, 6]: 100 to 500 nM
Cc1nc2sc(C(N)=O)c(N)c2c(C)c1C | – | – | – | EC50 at 48 h [2]: > 40 µM; Tat hybrid cell viability at 50,000 nM [4]: X (X = >60%)

SMILES | CC50 at 3 days ([1]; Table 5) [µM] | CC50 at 48 h [2] [µM] | IC50 [3, 5] [nM] | further results
CNC(=O)c1ccc(-c2cncc3sc(C(N)=O)c(N)c23)cc1 | > 40 | < 40 | < 100 | –
NC(=O)c1sc2nccc(N3CCc4ccccc4C3)c2c1N [Compound 2i, 3-amino-4-(1,2,3,4-tetrahydroisoquinolin-2-yl)thieno[2,3-b]pyridine-2-carboxamide] | – | – | – | IC50 [3, 7]: < 100 nM
NC(=O)c1sc2cncc(N3CCC(Oc4ccccc4)CC3)c2c1N [Compound 2j, 3-amino-4-(4-phenoxypiperidin-1-yl)thieno[2,3-c]pyridine-2-carboxamide] | – | – | – | IC50 [3, 7]: < 100 nM
NC(=O)c1sc2cncc(-c3ccc4c(c3)OCCO4)c2c1N | > 40 | < 40 | 100 to 500 | –
NC(=O)c1cc2c(-c3ccc4c(c3)OCCO4)cncc2s1 | < 40 | < 40 | < 100 | –
NC(=O)c1sc2cncc(-c3ccoc3)c2c1N | < 40 | > 40 | 100 to 500 | –
NC(=O)c1sc2cncc(N3CCCC(COc4ccccc4F)C3)c2c1N (stereo not drawn) | < 40 | < 40 | > 500 | –
COC(=O)c1sc2nc(C)cc(C)c2c1N | – | – | – | EC50 at 48 h [2]: > 40 µM; Tat hybrid cell viability at 50,000 nM [4]: X (X = >60%)
NC(=O)c1cc2c(-c3ccc4c(c3)OCO4)cncc2s1 [drawing 137] | < 40 | < 40 | < 100 | –
COc1ccc(-c2cncc3sc(C(N)=O)c(N)c23)cc1 [drawing 136] | > 40 | < 40 | < 100 | –
COc1ncc(-c2cncc3sc(C(N)=O)cc23)c(OC)n1 | > 40 | > 40 | > 500 | –
NC(=O)c1cc2c(-c3ccc4c(c3)OCO4)cncc2s1 [Compound 4f, 4-(2H-1,3-benzodioxol-5-yl)thieno[2,3-c]pyridine-2-carboxamide] | – | – | – | IC50 [3, 6]: < 100 nM
NC(=O)c1sc2cncc(-c3ccc4c(c3)CCO4)c2c1N [Compound 3e, 3-amino-4-(2,3-dihydro-1-benzofuran-5-yl)thieno[2,3-c]pyridine-2-carboxamide] | – | – | – | IC50 [3, 6]: < 100 nM
CC(=O)c1sc2nc(C)cc(C)c2c1N | – | – | – | EC50 at 48 h [2]: > 40 µM; Tat hybrid cell viability at 50,000 nM [4]: Y (Y = 30-60%)
NC(=O)c1sc2ncccc2c1N | – | – | – | EC50 at 48 h [2]: > 40 µM; Tat hybrid cell viability at 50,000 nM [4]: Y (Y = 30-60%)
NC(=O)c1cc2c(-c3ccc(Oc4ccccc4)cc3)cncc2s1 | – | < 40 | 100 to 500 | –
CN(C)C(=O)c1sc2ncccc2c1N | – | – | – | EC50 at 48 h [2]: < 40 µM; Tat hybrid cell viability at 50,000 nM [4]: X (X = >60%)
NC(=O)c1sc2cncc(N3CCC(F)(F)CC3)c2c1N [drawing 159] | > 40 | < 40 | 100 to 500 | –
NC(=O)c1sc2cncc(N3CCCC3)c2c1N | > 40 | – | 100 to 500 | –

SMILES | CC50 at 3 days ([1]; Table 5) [µM] | CC50 at 48 h [2] [µM] | IC50 [3, 5] [nM] | further results
CCOc1ccc(-c2cncc3sc(C(N)=O)cc23)cc1 | < 40 | < 40 | < 100 | –
NC(=O)c1sc2cncc(N3CCC(C(N)=O)CC3)c2c1N [drawing 158] | > 40 | < 40 | 100 to 500 | –
NC(=O)c1sc2cncc(-c3ccc4c(c3)OCO4)c2c1N [drawing 157] | > 40 | < 40 | 100 to 500 | –
Cc1noc(C2CCCN(c3cncc4sc(C(N)=O)c(N)c34)C2)n1 (stereo not drawn) [Compound 2k, 3-amino-4-[3-(3-methyl-1,2,4-oxadiazol-5-yl)piperidin-1-yl]thieno[2,3-c]pyridine-2-carboxamide] | – | – | – | IC50 [3, 7]: > 500 nM
CN(C)c1ccnc2sc(C(N)=O)c(N)c12 [Compound 1f, 3-amino-4-(dimethylamino)thieno[2,3-b]pyridine-2-carboxamide] | – | – | – | IC50 [3, 7]: > 500 nM
COC(=O)c1sc2nccc(N(C)C)c2c1N | – | – | – | EC50 at 48 h [2]: < 40 µM; Tat hybrid cell viability at 50,000 nM [4]: X (X = >60%)
CC(C)c1ccc2nc3sc(C(N)=O)c(N)c3cc2c1 | – | – | – | EC50 at 48 h [2]: < 40 µM; Tat hybrid cell viability at 50,000 nM [4]: X (X = >60%)
COc1ccc(-c2cc(C3CC3)nc3sc(C(N)=O)c(N)c23)cc1 | – | – | – | EC50 at 48 h [2]: > 40 µM; Tat hybrid cell viability at 50,000 nM [4]: X (X = >60%)
NC(=O)c1cc2c(N3CCCCC3)cncc2s1 | < 40 | > 40 | 100 to 500 | –
NC(=O)c1cc2c(-c3cc4ccccc4o3)cncc2s1 | < 40 | > 40 | > 500 | –
CN(C)C(=O)c1ccc(-c2cncc3sc(C(N)=O)c(N)c23)cc1 | > 40 | < 40 | 100 to 500 | –
NC(=O)c1sc2cncc(N3CCC4(CC3)OCCO4)c2c1N [Compound 2g, 3-amino-4-{1,4-dioxa-8-azaspiro[4.5]decan-8-yl}thieno[2,3-c]pyridine-2-carboxamide] | – | – | – | IC50 [3, 7]: 100 to 500 nM
COc1ccc(-c2cncc3sc(C(N)=O)c(N)c23)cc1 [Compound 3a, 3-amino-4-(4-methoxyphenyl)thieno[2,3-c]pyridine-2-carboxamide] | – | – | – | IC50 [3, 6]: < 100 nM
Cc1cc(C)c2c(N)c(C(=O)O)sc2n1 | – | – | – | EC50 at 48 h [2]: > 40 µM; Tat hybrid cell viability at 50,000 nM [4]: X (X = >60%)
N#Cc1ccccc1-c1cncc2sc(C(N)=O)cc12 [Compound 4d, 4-(2-cyanophenyl)thieno[2,3-c]pyridine-2-carboxamide] | – | – | – | IC50 [3, 6]: > 500 nM
NC(=O)c1cc2c(-c3cccc(-c4ccccc4)c3)cncc2s1 [Compound 4j, 4-(3-phenylphenyl)thieno[2,3-c]pyridine-2-carboxamide] | – | – | – | IC50 [3, 6]: 100 to 500 nM
NC(=O)c1sc2cncc(N3CCC(C(N)=O)CC3)c2c1N [Compound 2c, 1-{3-amino-2-carbamoylthieno[2,3-c]pyridin-4-yl}piperidine-4-carboxamide] | – | – | – | IC50 [3, 7]: 100 to 500 nM
Cc1ccnc2sc(C(N)=O)c(N)c12 | – | – | – | EC50 at 48 h [2]: < 40 µM; Tat hybrid cell viability at 50,000 nM [4]: X (X = >60%)

Source: patent publication US10154992B2, “Compounds and methods for treating HIV infection” (THE REGENTS OF THE UNIVERSITY OF CALIFORNIA, priority 2016, dated 2018)
